In publication PMC5625810, “Chiglitazar Preferentially Regulates Gene Expression via Configuration-Restricted Binding and Phosphorylation Inhibition of PPARγ” (PPAR Research, 2017):

Target: T1, PPARγ (Homo sapiens, UniProt P37231)
T1 construct: gene PPARG
T1 sequence (P37231 231-505 limits assumed): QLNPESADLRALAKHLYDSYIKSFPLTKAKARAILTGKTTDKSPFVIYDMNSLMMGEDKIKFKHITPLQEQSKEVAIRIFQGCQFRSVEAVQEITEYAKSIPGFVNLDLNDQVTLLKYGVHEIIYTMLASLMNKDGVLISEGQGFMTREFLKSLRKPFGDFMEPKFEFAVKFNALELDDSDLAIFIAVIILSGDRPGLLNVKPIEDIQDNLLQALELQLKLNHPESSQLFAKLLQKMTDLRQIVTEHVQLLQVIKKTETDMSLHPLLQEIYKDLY
Test: AlphaScreen cofactor peptide recruitment on purified LBD ([…]); cell reporter AC50 […] separately
Assay type: biochemical

CN(CCOc1ccc(CC2SC(=O)NC2=O)cc1)c1ccccn1 (stereo not shown) [Ros, rosiglitazone]
AlphaScreen cofactor peptide recruitment on purified LBD (2 μM); cell reporter A: The inhibition was partially and differentially restored upon additions of the three ligands
